Measurements published in the supplement of paper PMC11061612.

Key:
Experiment in all cases: Bliss excess, mean over the matrix (fraction); higher = more synergy
[1] = tested on: Ramos-2G6-4C10 (Burkitt's Lymphoma)
Outline: (§1)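 Bliss excess equals the observed combination effect minus the expected value EA + EB − EA·EB, where EA and EB are the effects of each agent alone. Combination Emax is the second-highest inhibition within the matrix. Inhibition was scaled from CellTiter-Glo 2.0 luminescence, with 0 set by vehicle wells and 1 by blank wells, after 72 hours of two-drug dosing of cells plated in 1536-well plates.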

[2] = tested on: CCRF-CEM (T-Lymphoblastic Leukemia)
Outline: as §1

[3] = tested on: SNU-5 (Gastric Carcinoma)
Outline: as §1

ES4 (Ewing's Sarcoma) = tested on: ES4 (Ewing's Sarcoma)
Outline: as §1

[4] = tested on: TE-9 (Esophageal Squamous Cell Carcinoma)
Outline: as §1

AGS (Gastric Carcinoma) = tested on: AGS (Gastric Carcinoma)
Outline: as §1

[5] = tested on: MDA-MB-361 (Breast Carcinoma)
Outline: as §1

[6] = tested on: MFE-296 (Endometrial Carcinoma)
Outline: as §1

[7] = tested on: LB831-BLC (Bladder Carcinoma)
Outline: as §1

[8] = tested on: CaR-1 (Colorectal Carcinoma)
Outline: as §1

[9] = tested on: ME-1 (Acute Myeloid Leukemia)
Outline: as §1

[10] = tested on: SK-ES-1 (Ewing's Sarcoma)
Outline: as §1

[11] = tested on: TE-15 (Esophageal Squamous Cell Carcinoma)
Outline: as §1

[12] = tested on: DEL (T-Cell Non-Hodgkin's Lymphoma)
Outline: as §1

42-MG-BA (Glioblastoma) = tested on: 42-MG-BA (Glioblastoma)
Outline: as §1

[13] = tested on: NCI-H2085 (Non-Small Cell Lung Carcinoma)
Outline: as §1

[14] = tested on: RC-K8 (B-Cell Non-Hodgkin's Lymphoma)
Outline: as §1

[15] = tested on: UM-UC-3 (Bladder Carcinoma)
Outline: as §1

T98G (Glioblastoma) = tested on: T98G (Glioblastoma)
Outline: as §1

[16] = tested on: LU-135 (Small Cell Lung Carcinoma)
Outline: as §1

| SMILES | Bliss excess [1] | Bliss excess [2] | Bliss excess [3] | Bliss excess (ES4 (Ewing's Sarcoma)) | Bliss excess [4] | Bliss excess (AGS (Gastric Carcinoma)) | Bliss excess [5] | Bliss excess [6] | Bliss excess [7] | Bliss excess [8] | Bliss excess [9] | Bliss excess [10] | Bliss excess [11] | Bliss excess [12] | Bliss excess (42-MG-BA (Glioblastoma)) | Bliss excess [13] | Bliss excess [14] | Bliss excess [15] | Bliss excess (T98G (Glioblastoma)) | Bliss excess [16] |
| --- | --- | --- | --- | --- | --- | --- | --- | --- | --- | --- | --- | --- | --- | --- | --- | --- | --- | --- | --- | --- |
| CN(C)CCCOc1ccc(-c2ccc3ncc4c(c3c2)n(C2CCOCC2)c(=O)n4C)cn1 [AZD0156] + O=C(c1cc(Cc2n[nH]c(=O)c3ccccc23)ccc1F)N1CCN(C(=O)C2CC2)CC1 [Olaparib] (first compound max 3 µM, partner max 3 µM) | 0.0928 | 0.158 | 0.015 | 0.116 | 0.109 | 0.0736 | 0.0254 | -0.0153 | -0.0407 | -0.0014 | -0.0065 | 0.393 | 0.0576 | 0.312 | 0.0602 | 0.0267 | -0.0046 | 0.0739 | -0.0085 | 0.0632 |
| C=CCn1c(=O)c2cnc(Nc3ccc(N4CCN(C)CC4)cc3)nc2n1-c1cccc(C(C)(C)O)n1 [AZD1775] + C1CN(CCC1(C(=O)N[C@@H](CCO)C2=CC=C(C=C2)Cl)N)C3=NC=NC4=C3C=CN4 [Capivasertib] (first compound max 3 µM, partner max 3 µM) | 0.0099 | 0.0122 | -0.0655 | 0.0691 | -0.002 | 0.0159 | -0.0156 | -0.0091 | -0.0434 | 0.0453 | -0.0726 | 0.0726 | 0.0494 | 0.0666 | -0.0419 | 0.0047 | -0.002 | 0.0405 | 0.0076 | 0.0467 |
| CN(CCO)CC[C@H](CSc1ccccc1)Nc1ccc(S(=O)(=O)NC(=O)c2ccc(N3CCC([C@@H](O)c4ccccc4-c4ccc(Cl)cc4)CC3)cc2)cc1S(=O)(=O)C(F)(F)F [AZD4320] + C1CN(CCC1(C(=O)N[C@@H](CCO)C2=CC=C(C=C2)Cl)N)C3=NC=NC4=C3C=CN4 [Capivasertib] (first compound max 1 µM, 7x7, partner max 3 µM) | 0.038 | 0.0753 | -0.0453 | -0.0333 | 0.0169 | -0.0081 | -0.0442 | -0.0255 | -0.0212 | -0.0668 | -0.0374 | 0.0827 | -0.042 | -0.0028 | -0.0479 | -0.0401 | -0.0241 | -0.0228 | -0.0371 | 0.0051 |
| CN(CCO)CC[C@H](CSc1ccccc1)Nc1ccc(S(=O)(=O)NC(=O)c2ccc(N3CCC([C@@H](O)c4ccccc4-c4ccc(Cl)cc4)CC3)cc2)cc1S(=O)(=O)C(F)(F)F [AZD4320] + C=CCn1c(=O)c2cnc(Nc3ccc(N4CCN(C)CC4)cc3)nc2n1-c1cccc(C(C)(C)O)n1 [AZD1775] (first compound max 1 µM, partner max 1 µM) | 0.0808 | 0.0065 | 0.0426 | 0.12 | 0.0368 | 0.0191 | -0.034 | -0.0075 | 0.0317 | -0.0375 | 0.0475 | 0.093 | -0.0137 | 0.0464 | -0.027 | -0.0212 | 0.0829 | -0.0064 | 0.0317 | 0.0636 |
| CN(CCO)CC[C@H](CSc1ccccc1)Nc1ccc(S(=O)(=O)NC(=O)c2ccc(N3CCC([C@@H](O)c4ccccc4-c4ccc(Cl)cc4)CC3)cc2)cc1S(=O)(=O)C(F)(F)F [AZD4320] + CCN(CCO)CCCOc1ccc2c(Nc3cc(CC(=O)Nc4cccc(F)c4)[nH]n3)ncnc2c1 [AZD2811] (first compound max 1 µM, 7x7, partner max 1 µM) | 0.18 | -0.0228 | -0.0115 | 0.0157 | 0.03 | 0.192 | 0.122 | -0.0109 | 0.0234 | -0.0753 | 0.0068 | 0.0156 | -0.0393 | -0.124 | 0.15 | -0.0145 | 0.17 | 0.0325 | 0.0346 | -0.0124 |
| COc1nnc2ccc(N3CCC(c4ccc(OCCN5CCN(C)C(=O)[C@H]5C)cc4)CC3)nn12 [AZD5153] + CN(CC[C@H](CSC1=CC=CC=C1)NC2=C(C=C(C=C2)S(=O)(=O)NC(=O)C3=CC=C(C=C3)N4CCC(CC4)[C@H](C5=CC=CC=C5C6=CC=C(C=C6)Cl)O)S(=O)(=O)C(F)(F)F)CCO [AZD4320] (first compound max 1 µM, 7x7, partner max 1 µM) |  |  | 0.0566 | -0.0136 |  | -0.03 | 0.0967 | 0.0104 |  |  |  | 0.0211 |  | 0.0204 | 0.101 |  | -0.0145 |  |  | 0.0221 |
| CC(=O)c1c(C)c2cnc(Nc3ccc(N4CCNCC4)cn3)nc2n(C2CCCC2)c1=O [Palbociclib] + CN(CC[C@H](CSC1=CC=CC=C1)NC2=C(C=C(C=C2)S(=O)(=O)NC(=O)C3=CC=C(C=C3)N4CCC(CC4)[C@H](C5=CC=CC=C5C6=CC=C(C=C6)Cl)O)S(=O)(=O)C(F)(F)F)CCO [AZD4320] (first compound max 10 µM, 7x7, partner max 1 µM) |  |  | -0.0446 | -0.113 |  | -0.008 | -0.0078 | -0.0227 |  |  |  | 0.0334 |  | -0.0135 | -0.061 |  | 0.0351 |  |  | 0.0316 |
| COc1cccc(OCCCN)c1-c1cc(Nc2cnc(C#N)cn2)n[nH]1 [Prexasertib] + C=CCn1c(=O)c2cnc(Nc3ccc(N4CCN(C)CC4)cc3)nc2n1-c1cccc(C(C)(C)O)n1 [AZD1775] (first compound max 1 µM, partner max 1 µM) | 0.112 | 0.0186 | 0.0491 | 0.0978 | 0.2 | 0.195 | 0.0331 | 0.116 | 0.168 | 0.086 | 0.0408 | 0.0454 | 0.0165 | 0.0279 | 0.0835 | 0.124 |  | 0.14 | -0.0232 | -0.0004 |
| COc1cccc(OCCCN)c1-c1cc(Nc2cnc(C#N)cn2)n[nH]1 [Prexasertib] + CN(C)CCCOc1ccc(-c2ccc3ncc4c(c3c2)n(C2CCOCC2)c(=O)n4C)cn1 [AZD0156] (first compound max 1 µM, 7x7, partner max 1 µM) | 0.0693 | -0.058 | -0.0703 | 0.0147 | -0.0307 | -0.0052 | 0.0014 | -0.0163 | 0.0252 | -0.0442 | -0.0167 | 0.0075 | -0.0346 | -0.0201 | 0.023 | 0.006 |  | -0.0174 | 0.0132 | 0.0508 |
| COc1cccc(OCCCN)c1-c1cc(Nc2cnc(C#N)cn2)n[nH]1 [Prexasertib] + C[C@@H]1COCCN1C2=NC(=NC(=C2)C3(CC3)[S@](=N)(=O)C)C4=C5C=CNC5=NC=C4 [AZD6738] (first compound max 1 µM, 7x7, partner max 10 µM) | -0.0191 | -0.0013 | -0.0371 | -0.0489 | -0.0233 | 0.0164 | -0.018 | -0.0456 | 0.019 | 0.0097 | 0.0637 | -0.0132 | -0.0395 | 0.001 | -0.0994 | -0.0092 |  | 0.0563 | 0.0453 | 0.0442 |
| COc1cccc(OCCCN)c1-c1cc(Nc2cnc(C#N)cn2)n[nH]1 [Prexasertib] + Cc1cc2ncnn2cc1Nc1ncc2c(n1)n(C1CCOCC1)c(=O)n2C [AZD7648] (first compound max 1 µM, 7x7, partner max 10 µM) | 0.0025 | -0.0076 | -0.0111 | -0.0121 | -0.0322 | -0.018 | -0.0196 | -0.0093 | -0.0865 | 0.0141 | -0.0048 | -0.0257 | -0.0105 | -0.0097 | -0.0574 | -0.0481 |  | -0.0198 | -0.0566 | 0.025 |
| COc1cccc(OCCCN)c1-c1cc(Nc2cnc(C#N)cn2)n[nH]1 [Prexasertib] + O=C(c1cc(Cc2n[nH]c(=O)c3ccccc23)ccc1F)N1CCN(C(=O)C2CC2)CC1 [Olaparib] (first compound max 1 µM, 7x7, partner max 10 µM) | -0.0875 | 0.0024 | -0.0633 | -0.0699 | -0.0425 | 0.0033 | -0.0509 | -0.0516 | -0.0175 | -0.0635 | -0.0619 | 0.0008 | -0.0427 | 0.0035 | -0.0399 | -0.208 |  | -0.0015 | -0.134 | -0.0079 |
| COc1cc2c(cc1OCCCCCOc1cc3c(cc1OC)C(=O)N1C=C(C)C[C@H]1C=N3)N=C[C@@H]1CC(C)=CN1C2=O [SG3199] + O=C(c1cc(Cc2n[nH]c(=O)c3ccccc23)ccc1F)N1CCN(C(=O)C2CC2)CC1 [Olaparib] (first compound max 0.001 µM, 7x7, partner max 10 µM) | -0.0122 | -0.0045 | -0.0105 | -0.0097 | -0.0269 | -0.0061 | -0.035 | -0.0639 | -0.0486 | -0.0429 | -0.013 | -0.0326 | -0.0307 | 0.0108 | 0.0075 | -0.0323 |  | -0.0308 | -0.0486 | 0.0232 |
| CCc1c2c(nc3ccc(O)cc13)-c1cc3c(c(=O)n1C2)COC(=O)[C@]3(O)CC [SN-38] + CN(C)CCCOc1ccc(-c2ccc3ncc4c(c3c2)n(C2CCOCC2)c(=O)n4C)cn1 [AZD0156] (first compound max 0.3 µM, 7x7, partner max 1 µM) | 0.0361 | 0.0508 | -0.0237 | 0.0523 | 0.0065 | -0.0061 | -0.063 | -0.0007 | 0.0223 | 0.0109 | -0.008 | 0.0037 | 0.0146 | 0.117 | 0.0561 | -0.0026 |  | 0.06 | -0.03 | -0.0201 |
| C[C@@H](c1ccc2nccn2c1)n1nnc2ncc(-c3cnn(C)c3)nc21 [Savolitinib] + CN(CC[C@H](CSC1=CC=CC=C1)NC2=C(C=C(C=C2)S(=O)(=O)NC(=O)C3=CC=C(C=C3)N4CCC(CC4)[C@H](C5=CC=CC=C5C6=CC=C(C=C6)Cl)O)S(=O)(=O)C(F)(F)F)CCO [AZD4320] (first compound max 1 µM, 7x7, partner max 1 µM) |  |  | 0.029 | -0.0622 |  | -0.0353 | -0.0425 | -0.0181 |  |  |  | -0.0692 |  | -0.0318 | -0.0553 |  | -0.0478 |  |  | 0.0057 |
